Columns and labels:
[1] = Liquid; for viscosity / mass density: 101 kPa; for viscosity: Concentric cylinders viscometry; for mass density: Vibrating tube method; for vapor or sublimation pressure: Closed cell (Static) method
[2] = wn = mass fraction of the nth substance listed; details: 101 kPa, Liquid; for viscosity: Concentric cylinders viscometry; for mass density: Vibrating tube method

CC(O)CN(C)C (stereo not drawn) [1-(dimethylamino)-2-propanol]
[1]
Details	mass density [kg/m3]	vapor or sublimation pressure [kPa]	viscosity [mPa·s]
298.15 K	845.4	–	1.332
298.49 K	–	4.13	–
303.15 K	840.3	–	1.183
303.88 K	–	6.59	–
308.15 K	835.5	–	1.059
308.43 K	–	8.03	–
313.15 K	830.7	–	0.955
313.34 K	–	10.34	–
318.15 K	825.8	–	0.866
318.26 K	–	12.51	–
323.15 K	820.9	–	0.788
323.6 K	–	15.84	–
328.15 K	816	–	0.72
328.26 K	–	18.73	–
333.04 K	–	23.06	–
333.15 K	811.1	–	0.662

CN(CCO)CCO [N-methyldiethanolamine]
[1]
Details	mass density [kg/m3]	viscosity [mPa·s]
298.15 K	1036.9	77.29
308.15 K	1029.8	44.99
323.15 K	1018.3	22.6

CN(CCO)CCO [N-methyldiethanolamine] + O
[2]
Details	mass density, 298.15 K [kg/m3]	mass density, 308.15 K [kg/m3]	mass density, 323.15 K [kg/m3]	viscosity, 298.15 K [mPa·s]	viscosity, 308.15 K [mPa·s]	viscosity, 323.15 K [mPa·s]
w1 = 0.2	1014.8	1010.6	1002.9	1.932	1.51	1.061
w1 = 0.3	1025.2	1021.1	1013.2	3.081	2.263	1.521
w1 = 1	1036.9	1029.8	1018.3	77.29	44.99	22.6
